Data as given in patent US6177253A, “Screening methods for the identification of anti-HIV compounds employing a cyclosporine-specific monoclonal antibody that cross-reacts with HIV-1 p24” (priority 1998, dated 2001).

What was measured:
Type in all cases: binding, BALB/c mice
H6 1.5 = assay: ELISA inhibition by singly modified Cs-derivatives, McAb H6 1.5; conditions: group III; D-Lys^8 -Cs-BSA coating
Experimental: (§1) A second ELISA Procedure used conjugates of D-Lys^8 -Cs-BSA and Thr^2 -Cs-BSA for coating (Queeniaux et al., 1987b). An indirect detection system consisting of rabbit anti-mouse Ig followed by alkaline phosphates-conjugated goat anti-rabbit IgG was performed as previously described (Queenlaux et al., 1987b).
(§2) The binding of the 22 McAbs to these two Cs-BSA conjugates was also found to correlate well with their fine specificity patterns, as characterized with a set of 28-36 Cs derivatives. Typical ELISA curves showing McAb binding either to D-Lys^8 -Cs-BSA (panel A) or to Thr^2 -Ca-BSA (panel B) and inhibited by Cs or Cs derivatives are shown in FIGS. 8A-8B, D-Lys^8 -Cs-BSA was subsequently used for coating in the inhibition experiments, except for those McAbs binding selectively to Thr^2 -Cs-BSA (see Table 4 and FIGS. 7A-7C). An example of the binding of 26 Cs derivatives by McAbs belonging to each of the five specificity groups mentioned above is reported in Table 5. The results are expressed as the difference of IC50 (in log10) between the Cs derivatives and Cs. All Cs-derivatives used in this study were selected for having a conserved peptide ring conformation compared with CsA (as determined in NMR or X-ray diffraction).

C4 2.2 = assay: ELISA inhibition by singly modified Cs-derivatives, McAb C4 2.2; conditions: group V; McAb binds selectively to Thr^2 -Cs-BSA coating
Experimental: as §1, §2

G7 1.1 = assay: ELISA inhibition by singly modified Cs-derivatives, McAb G7 1.1; conditions: group I; McAb binds selectively to Thr^2 -Cs-BSA coating
Experimental: as §1, §2

H4 1.3 = assay: ELISA inhibition by singly modified Cs-derivatives, McAb H4 1.3; conditions: group II; D-Lys^8 -Cs-BSA coating
Experimental: as §1, §2

B11 1.4 = assay: ELISA inhibition by singly modified Cs-derivatives, McAb B11 1.4; conditions: group IV; D-Lys^8 -Cs-BSA coating
Experimental: as §1, §2

Row | SMILES | log10 difference in the concentrations of Cs-derivatives and unmodified Cs required to achieve 50% inhibition in ELISA, McAb H6 1.5 (H6 1.5) [log10] | log10 difference in the concentrations of Cs-derivatives and unmodified Cs required to achieve 50% inhibition in ELISA, McAb C4 2.2 (C4 2.2) [log10] | log10 difference in the concentrations of Cs-derivatives and unmodified Cs required to achieve 50% inhibition in ELISA, McAb G7 1.1 (G7 1.1) [log10] | log10 difference in the concentrations of Cs-derivatives and unmodified Cs required to achieve 50% inhibition in ELISA, McAb H4 1.3 (H4 1.3) [log10] | log10 difference in the concentrations of Cs-derivatives and unmodified Cs required to achieve 50% inhibition in ELISA, McAb B11 1.4 (B11 1.4) [log10]
1 | C/C=C/C[C@@H](C)[C@@H](O)[C@H]1C(=O)N[C@@H](CC)C(=O)N(C)CC(=O)N(C)[C@@H](CC(C)C)C(=O)N[C@@H](C(C)C)C(=O)N(C)[C@@H](CC(C)C)C(=O)N[C@@H](C)C(=O)N[C@H](C)C(=O)N(C)[C@@H](CC(C)C)C(=O)N(C)[C@@H](CC(C)C)C(=O)N(C)[C@@H]([C@H](C)CC)C(=O)N1C [MeVal^11 aMeIle] | 0.3 | 0.0 | 0.0 | 0.3 | < 0.0
2 | C/C=C/C[C@@H](C)[C@@H](O)[C@H]1C(=O)N[C@@H](CC)C(=O)N(C)CC(=O)N(C)[C@@H](CC(C)C)C(=O)N[C@@H](C(C)C)C(=O)N(C)[C@@H](CC(C)C)C(=O)N[C@@H](C)C(=O)N[C@H](CO)C(=O)N(C)[C@@H](CC(C)C)C(=O)N(C)[C@@H](CC(C)C)C(=O)N(C)[C@@H](C(C)C)C(=O)N1C [D-Ala^8 D-Ser] | < 0.0 | 0.3 | 1.3 | 0.0 | 0.1
3 | C/C=C/C[C@@H](C)[C@@H](O)[C@H]1C(=O)N[C@@H](CC)C(=O)N(C)CC(=O)N(C)[C@@H](CC(C)C)C(=O)N[C@@H](C(C)C)C(=O)N(C)[C@@H](CC(C)C)C(=O)N[C@@H](C)C(=O)N[C@H](C)C(=O)N(C)[C@@H](CC(C)C)C(=O)N(C)[C@@H](CC(C)C)C(=O)N(C)[C@@H]([C@@H](C)CC)C(=O)N1C [MeVal^11 MeIle] | 0.0 | 0.3 | 0.4 | 0.0 | 0.2
4 | C/C=C/C[C@@H](C)[C@@H](O)[C@H]1C(=O)N[C@@H](CC)C(=O)N(C)CC(=O)N(C)[C@@H](C)C(=O)N[C@@H](C(C)C)C(=O)N(C)[C@@H](CC(C)C)C(=O)N[C@@H](C)C(=O)N[C@H](C)C(=O)N(C)[C@@H](CC(C)C)C(=O)N(C)[C@@H](CC(C)C)C(=O)N(C)[C@@H](C(C)C)C(=O)N1C [MeLeu^4 MeAla] | 1.2 | 0.1 | < 0.0 | 1.8 | 0.3
5 | C/C=C/C[C@@H](C)[C@@H](O)[C@H]1C(=O)N[C@@H](CC)C(=O)N(C)CC(=O)N(C)[C@@H](CC(C)C)C(=O)N[C@@H](C(C)C)C(=O)N(C)[C@@H](CC(C)C)C(=O)N[C@@H](C)C(=O)N[C@H](C)C(=O)N(C)[C@@H](CC(C)C)C(=O)N(C)[C@@H](C)C(=O)N(C)[C@@H](C(C)C)C(=O)N1C [MeAla^10 MeAla] | 0.0 | 0.8 | < 0.0 | 0.4 | 0.1
